# According to patent publication US20110263454A1, “Methods of Identifying Functional Characteristics of Promoters, Transcription Modifying Proteins and Transcription Modulating Agents” (Salk Institute for Biological Studies, priority 2008, published 2011):
# Assays:
# [1] = system: mABCA1 promoter; experiment: NHR-promoter luciferase screen, mABCA1 promoter; assay type: cell-based, mouse; settings: for Luc. act., normalized to lacZ / Normalized Luc. act., normalized to control: ABCA1 promoter, hormone receptor with or without its ligand; for Normalized Luc. act., normalized to control: relative to control; for mABCA1 promoter reporter activity: transcription factor +/- ligand, control = 1.00
# Protocol: (§1) The use, feasibility, and reproducibility of the functional NHR-promoter screen in a 48-well format have been tested validated. Briefly, there were co-expressed 50 ng of each NHR/NHR homodimer or NHR/RXR heterodimer with 100 ng promoter/luciferase construct and 50 ng of LacZ (as a control for transfection efficiency) in CV-1 cells using Fugene HD (Roche) as a transfection reagent (alternatively or additionally, a CMV-YFP construct can be used as a transfection control). Each of the nuclear hormone receptors that were used in these experiments was cloned into a pcDNA3.1 vector and comprised a C-terminally linked V5H6 tag. Twenty-four hours after transfection, appropriate ligands were added, where applicable, (see Table 5 for various ligands and concentrations and after 48 hrs, samples were assayed for luciferase and LacZ activity. To measure for luciferase activity 15 ul of sample was added to 30 ul of luciferase buffer (20 mM tricine, 1.07 mM MgCarbonate, 2.67 mM MgSulfate, 0.1 mM Naz-EDTA, 5 mM DTT, 5 mM ATP, 0.15 mg/ml CoA, 0.5 mM Luciferin), mixed briefly, and run in a Perkin Elmer Victor 5 luminometer. Thus, the functional NHR-promoter screen was used to observe the transcriptional activity of 29 promoters from various physiological pathways including inflammation, lipid and sugar metabolism, cholesterol transport, xenobiotic metabolism, and circadian rhythm.
# (§2) The promoters that facilitate transcription of the indicated gene products that were tested using the protocols described herein are listed in the first row of the table. The nuclear hormone receptors and, where applicable, ligands that were assayed for their transcriptional effects on the promoters are listed in the first column of the table. The data represent the luciferase activity of each sample normalized to both the lacZ activity of that sample and to a control, e.g., no NHR or ligand, as customary in the art. As described previously, these normalizations allow the transcriptional activity of each reporter cell to be compared to other samples.
# (§3) Tables 7-40 show the transcriptional effects of the hormone receptors, and, where applicable, ligands (orphan receptors are screened without ligand), on each individual promoter. […] The control data of each table are shown in their last rows.
# [2] = system: MCP-1 promoter; experiment: NHR-promoter luciferase screen, MCP-1 promoter; assay type: cell-based; settings: for Normalized Luc. act., normalized to control / Luc. act., normalized to lacZ: MCP-1 promoter reporter; for Normalized Luc. act., normalized to control: HR without or with its ligand, relative to control; for Luc. act., normalized to lacZ: hormone receptor (HR) without or with its ligand; for mMCP-1 promoter reporter activity: transcription factor +/- ligand, control = 1.00
# Protocol: as §1, §2, §3
# [3] = system: mPer1 promoter; experiment: NHR-promoter luciferase screen, mPer1 promoter; assay type: cell-based, mouse; settings: for Luc. act., normalized to lacZ / Normalized Luc. act., normalized to control: Per1 promoter reporter, co-transfected HR, with or without its ligand; for Normalized Luc. act., normalized to control: relative to control; for luciferase activity normalized to lacZ activity and to a control, mPer1: mPer1 promoter-luciferase, CV-1 cells, NHR +/- ligand, control = 1.00
# Protocol: as §1, §2, §3
# [4] = system: hCYP3A4 promoter; experiment: NHR-promoter luciferase screen, hCYP3A4 promoter; assay type: cell-based, human; settings: for Luc. act., normalized to lacZ / Normalized Luc. act., normalized to control: CYP3A4 promoter, HR/ligand component; for hCYP3A4 promoter reporter activity: transcription factor +/- ligand, control = 1.00
# Protocol: Briefly, there were co-expressed 50 ng of each NHR/NHR homodimer or NHR/RXR heterodimer with 100 ng promoter/luciferase construct and 50 ng of LacZ (as a control for transfection efficiency) in CV-1 cells using Fugene HD (Roche) as a transfection reagent (alternatively or additionally, a CMV-YFP construct can be used as a transfection control). Each of the nuclear hormone receptors that were used in these experiments was cloned into a pcDNA3.1 vector and comprised a C-terminally linked V5H6 tag.
# as §2, §3
# [5] = system: mADRP promoter; experiment: NHR-promoter luciferase screen, mADRP promoter; assay type: cell-based, mouse; settings: for Luc. act., normalized to lacZ / Normalized Luc. act., normalized to control: ADRP promoter, HR/ligand component; for mADRP promoter reporter activity: transcription factor +/- ligand, control = 1.00
# Protocol: as §1, §2, §3
# [6] = system: mUCP3 promoter; experiment: NHR-promoter luciferase screen, mUCP3 promoter; assay type: cell-based, mouse; settings: for Normalized Luc. act., normalized to control / Luc. act., normalized to lacZ: mUCP3 promoter reporter; for Normalized Luc. act., normalized to control: HR without or with its ligand, relative to control; for Luc. act., normalized to lacZ: hormone receptor (HR) without or with its ligand; for mUCP3 promoter reporter activity: transcription factor +/- ligand, control = 1.00
# Protocol: as §1, §2, §3
Substance,"Luc. act., normalized to lacZ [1]","Normalized Luc. act., normalized to control [1]",mABCA1 promoter reporter activity [1],"Normalized Luc. act., normalized to control [2]","Luc. act., normalized to lacZ [2]",mMCP-1 promoter reporter activity [2],"Luc. act., normalized to lacZ [3]","Normalized Luc. act., normalized to control [3]","luciferase activity normalized to lacZ activity and to a control, mPer1 [3]","Luc. act., normalized to lacZ [4]","Normalized Luc. act., normalized to control [4]",hCYP3A4 promoter reporter activity [4],"Luc. act., normalized to lacZ [5]","Normalized Luc. act., normalized to control [5]",mADRP promoter reporter activity [5],"Normalized Luc. act., normalized to control [6]","Luc. act., normalized to lacZ [6]",mUCP3 promoter reporter activity [6]
"PNR: Photoreceptor-specific Nuclear Receptor (NR2E3), cDNA driver",9.9,1.8,1.76,1.1,116.3,1.09,93.4,0.6,0.65,2.2,0.5,0.50,381.7,0.8,0.77,0.8,0.5,0.79
"NR4a1: NR4a1 (NR4A1; NUR77), nuclear hormone receptor cDNA driver",11.4,2.0,2.04,0.7,76.3,0.71,503.5,3.5,3.50,6.2,1.4,1.40,1029.3,2.1,2.07,2.1,1.40,2.07
"TLX: Tailless (homolog of drosophila) (NR2E1), cDNA driver",21.8,3.9,3.88,0.6,60.9,0.57,217.6,1.5,1.51,4.0,0.9,0.90,259.2,0.5,0.52,1.1,0.8,1.11
"PPARg: Peroxisome proliferator activated receptor γ (NR1C3), cDNA driver",14.4,2.6,2.56,1.4,146.1,1.36,154.5,1.1,1.07,4.7,1.1,1.06,891.4,1.8,1.79,1.8,1.2,1.83
"GR: Glucocorticoid Receptor (NR3C1), cDNA driver",8.5,1.5,1.52,0.2,23.9,0.22,384.1,2.7,2.67,2.0,0.5,0.45,238.1,0.5,0.48,0.9,0.59,0.88
"AR: Androsterone Receptor (NR3C4), cDNA driver",8.3,1.5,1.48,0.6,62.4,0.58,123.5,0.9,0.86,3.9,0.9,0.88,600.8,1.2,1.21,2.5,1.69,2.50
"SF-1: Steroidogenic Factor 1 (NR5A1, SF1), cDNA driver",34.4,6.1,6.12,2.0,217.9,2.04,536.5,3.7,3.73,10.6,2.4,2.39,1864.1,3.7,3.75,5.5,3.7,5.46
"VDR: Vitamin D Receptor (NR1I1), cDNA driver",15.2,2.7,2.71,2.0,215.8,2.02,97.1,0.7,0.67,5.1,1.2,1.15,766.6,1.5,1.54,1.5,1.0,1.49
"RXRa: Retinoic X Receptor α (NR2B1), cDNA driver",8.7,1.6,1.56,1.6,170.8,1.60,75.8,0.5,0.53,1.5,0.3,0.35,783.2,1.6,1.57,1.3,0.9,1.27
"LXRa: Liver X Receptor α (NR1H3), cDNA driver",93.0,16.6,16.56,0.9,97.3,0.91,100.6,0.7,0.70,4.1,0.9,0.93,1095.7,2.2,2.20,1.6,1.1,1.58
"PPARa: Peroxisome proliferator activated receptor α (NR1C1), cDNA driver",10.7,1.9,1.90,1.1,121.8,1.14,180.7,1.3,1.25,3.4,0.8,0.76,1497.1,3.0,3.01,2.1,1.5,2.15
